In patent US8263610B2, “Substituted imidazolyl-5,6-dihydrobenzo[N]isoquinoline compounds” (ArQule, Inc., priority 2008, dated 2012):

Tests used:
MDA-MB-231 cells = test: MTS assay, inhibition of cell growth; format: cell-based; conditions: Homo sapiens, compound at 10 μM, 72 hours
Experimental: (§1) MDA-MB-231, DLD-1, Kato III NCI-H1299, PACA-2 cells, were maintained at 37° C., 5% CO2 in DMEM media supplemented with 10% fetal bovine serum, penicillin/streptomycin and fungizone (Invitrogen). Cells were seeded into 96-well tissue culture plates at 3000 per well and cultured at 37° C. for 18 hours. Test compounds were dissolved and diluted to 300× in DMSO then further diluted 1:40 in DMEM before addition to cells (1:7.5 dilution). Cells were incubated with test compounds for 72 hours followed by incubation with tetrazolium compound (3-(4,5-dimethylthiazol-2-yl)-5-(3-carboxymethoxyphenyl)-2-(4-sulfophenyl)-2H-tetrazolium, inner salt; MTS) and the electron coupling reagent, phenazine methosulfate (PMS) for 4 hours. […] The ability of compounds to inhibit cell growth in this assay is correlated with the reduction of dehydrogenase enzyme activity found in metabolically active cells. The measurement of the absorbance of the formazan was assessed using an ENVISION™ (Perkin Elmer) microplate reader at 492 nm.

PACA-2 cells = test: MTS assay, inhibition of cell growth; format: cell-based; conditions: compound at 10 μM, 72 hours
Experimental: as §1

DLD-1 cells = test: MTS assay, inhibition of cell growth; format: cell-based; conditions: Homo sapiens, compound at 10 μM, 72 hours
Experimental: as §1

Kato III cells = test: MTS assay, inhibition of cell growth; format: cell-based; conditions: Homo sapiens, compound at 10 μM, 72 hours
Experimental: as §1

Compound | melting point [°C] | also measured
N[C@H](C(=O)N1CCc2c(cnc3[nH]ncc23)C1)c1ccccc1 [(1S)-2-oxo-1-phenyl-2-(3,6,8,9-tetrahydro-7H-pyrazolo[3,4-c][2,7]naphthyridin-7-yl)ethanamine] |  | inhibition at 10 µM (MDA-MB-231 cells): 50 to 74%; inhibition at 10 µM (PACA-2 cells): 50 to 74%; inhibition at 10 µM (DLD-1 cells): < 24%
CC(C)(C)OC(=O)N1CCc2c(cnc3[nH]ncc23)C1 [Example 76, tert-butyl 8,9-dihydro-3H-pyrazolo[3,4-c][2,7]naphthyridine-7(6H)-carboxylate] | > 70 | 
CC(C)(C)OC(=O)N1CCc2c(cnc3[nH]nc(Br)c23)C1 [Example 77, tert-butyl 1-bromo-8,9-dihydro-3H-pyrazolo[3,4-c][2,7]naphthyridine-7(6H)-carboxylate] | > 65 | 
CC(C)(C)OC(=O)N1CCN(C(C(=O)N2CCc3c(cnc4[nH]nc(Br)c34)C2)c2ccccc2)CC1 (stereo not shown) [Example 91, tert-butyl 4-(2-(1-bromo-8,9-dihydro-3H-pyrazolo[3,4-c][2,7]naphthyridin-7(6H)-yl)-2-oxo-1-phenylethyl)piperazine-1-carboxylate] | 159 to 161 | 
O=C(Nc1cccc(C(=O)N2CCC(n3c(=O)[nH]c4ccccc43)CC2)c1)N1CCc2c(cnc3[nH]ncc23)C1 [Example 94, N-(3-(4-(2-oxo-2,3-dihydro-1H-benzo[d]imidazol-1-yl)piperidine-1-carbonyl)phenyl)-8,9-dihydro-3H-pyrazolo[3,4-c][2,7]naphthyridine-7(6H)-carboxamide] | > 215 | 
COc1ccc(Cn2ncc3c4c(cnc32)CN(C(=O)Nc2cccc(C(=O)O)c2)CC4)cc1 [Example 153, 3-(3-(4-methoxybenzyl)-6,7,8,9-tetrahydro-3H-pyrazolo[3,4-c][2,7]naphthyridine-7-carboxamido)benzoic acid] | > 136 | 
Cc1nc(-c2cccc(NC(=O)N3CCc4c(cnc5[nH]nc(Br)c45)C3)c2)cs1 [Example 402, 1-bromo-N-(3-(2-methylthiazol-4-yl)phenyl)-8,9-dihydro-3H-pyrazolo[3,4-c][2,7]naphthyridine-7(6H)-carboxamide] | 258 to 261 | 
Cc1cncc(Oc2cccc(NC(=O)N3CCc4c(cnc5[nH]nc(Br)c45)C3)c2)n1 [Example 403, 1-bromo-N-{3-[(6-methylpyrazin-2-yl)oxy]phenyl}-3,6,8,9-tetrahydro-7H-pyrazolo[3,4-c][2,7]naphthyridine-7-carboxamide] | 221 to 223 | 
Cc1nc(-c2cccc(NC(=O)N3CCc4c(cnc5[nH]nc(Br)c45)C3)c2)no1 [Example 404, 1-bromo-N-[3-(5-methyl-1,2,4-oxadiazol-3-yl)phenyl]-3,6,8,9-tetrahydro-7H-pyrazolo[3,4-c][2,7]naphthyridine-7-carboxamide] | > 152 | 
O=C(Nc1ccccc1)N1CCc2c(cnc3[nH]nc(-c4ccccc4)c23)C1 [Example 407, N,1-diphenyl-8,9-dihydro-3H-pyrazolo[3,4-c][2,7]naphthyridine-7(6H)-carboxamide] | 150 to 170 | 
COc1ccc(Cn2ncc3c4c(cnc32)CN(c2ncnc3[nH]nc(C(=O)c5ccccc5)c23)CC4)cc1 [Example 434, (4-(3-(4-methoxybenzyl)-8,9-dihydro-3H-pyrazolo[3,4-c][2,7]naphthyridin-7(6H)-yl)-1H-pyrazolo[3,4-d]pyrimidin-3-yl)(phenyl)methanone] | > 145 | 
O=C(c1ccccc1)c1c[nH]c2ncnc(N3CCc4c(cnc5[nH]nc(Br)c45)C3)c12 [Example 436] | 300 to 302 | 
COc1ccc(Cn2ncc3c4c(cnc32)CN(C(=N)N)CC4)cc1 [Example 474, 3-(4-methoxybenzyl)-8,9-dihydro-3H-pyrazolo[3,4-c][2,7]naphthyridine-7(6H)-carboximidamide] | 255 to 256 | 
O=C(NC[C@@H]1CCCO1)c1cccc(NC(=O)N2CCc3c(cnc4[nH]ncc34)C2)c1 [N-(3-{[(2S)-tetrahydrofuran-2-ylmethyl]carbamoyl}phenyl)-3,6,8,9-tetrahydro-7H-pyrazolo[3,4-c][2,7]naphthyridine-7-carboxamide] |  | inhibition at 10 µM (MDA-MB-231 cells): 75 to 100%; inhibition at 10 µM (PACA-2 cells): 75 to 100%; inhibition at 10 µM (DLD-1 cells): 75 to 100%; inhibition at 10 µM (Kato III cells): 75 to 100%
CC(=O)Nc1cccc(-c2n[nH]c3ncc4c(c23)CCNC4)c1 [N-[3-(6,7,8,9-tetrahydro-3H-pyrazolo[3,4-c][2,7]naphthyridin-1-yl)phenyl]acetamide] |  | inhibition at 10 µM (MDA-MB-231 cells): 25 to 49%; inhibition at 10 µM (DLD-1 cells): 50 to 74%; inhibition at 10 µM (Kato III cells): 75 to 100%
c1ccc(CNC2CCc3c(cnc4[nH]ncc34)C2)cc1 (stereo not shown) [N-benzyl-6,7,8,9-tetrahydro-3H-pyrazolo[3,4-c]isoquinolin-7-amine] |  | inhibition at 10 µM (MDA-MB-231 cells): < 24%; inhibition at 10 µM (PACA-2 cells): < 24%; inhibition at 10 µM (DLD-1 cells): < 24%
c1ccc(C2Cc3cnc4[nH]ncc4c3-c3ccccc32)cc1 (stereo not shown) [drawing 555, 7-phenyl-6,7-dihydro-3H-benzo[f]pyrazolo[3,4-c]isoquinoline] |  | inhibition at 10 µM (MDA-MB-231 cells): < 24%; inhibition at 10 µM (PACA-2 cells): < 24%; inhibition at 10 µM (DLD-1 cells): 25 to 49%; inhibition at 10 µM (Kato III cells): 25 to 49%
O=C(Nc1ccccc1)NC1CCc2c(cnc3[nH]ncc23)C1 (stereo not shown) [drawing 560, 1-phenyl-3-(6,7,8,9-tetrahydro-3H-pyrazolo[3,4-c]isoquinolin-7-yl)urea] |  | inhibition at 10 µM (PACA-2 cells): < 24%; inhibition at 10 µM (DLD-1 cells): < 24%
COc1ccc2c(c1)-c1c(cnc3[nH]ncc13)CC2 [drawing 562, 10-methoxy-6,7-dihydro-3H-benzo[f]pyrazolo[3,4-c]isoquinoline] |  | inhibition at 10 µM (PACA-2 cells): < 24%; inhibition at 10 µM (DLD-1 cells): < 24%; inhibition at 10 µM (Kato III cells): 25 to 49%
Cc1nc(-c2cccc(NC(=O)N3CCc4c(cnc5[nH]nc(Br)c45)C3)c2)no1 [drawing 581, 1-bromo-N-[3-(5-methyl-1,2,4-oxadiazol-3-yl)phenyl]-3,6,8,9-tetrahydro-7H-pyrazolo[3,4-c][2,7]naphthyridine-7-carboxamide] |  | inhibition at 10 µM (PACA-2 cells): < 24%; inhibition at 10 µM (Kato III cells): < 24%

Now from value to compound, other results behind:

melting point [°C] | Compound | also measured
237 to 241 | O=C(O)c1cccc(NC(=O)N2CCc3c(cnc4[nH]ncc34)C2)c1 [Example 93b, 3-(6,7,8,9-tetrahydro-3H-pyrazolo[3,4-c][2,7]naphthyridine-7-carboxamido)benzoic acid] | 
228 to 229 | O=S(=O)(NC1CCc2c(cnc3[nH]ncc23)C1)c1ccccc1 (stereo not shown) [Example 158, N-(6,7,8,9-tetrahydro-3H-pyrazolo[3,4-c]isoquinolin-7-yl)benzenesulfonamide] | 
184 to 186 | O=C(Nc1ccccc1)N1CCc2c(cnc3[nH]ncc23)C1 [Example 318, N-phenyl-8,9-dihydro-3H-pyrazolo[3,4-c][2,7]naphthyridine-7(6H)-carboxamide] | 
> 140 | O=C(Nc1ccccc1)N1CCc2cnc3[nH]ncc3c2-c2ccccc21 [Example 319, N-phenyl-6,7-dihydropyrazolo[4′,3′:5,6]pyrido[3,4-d][1]benzazepine-8(3H)-carboxamide] | 
> 155 | Cc1nc(-c2cccc(NC(=O)N3CCc4c(cnc5[nH]ncc45)C3)c2)cs1 [Example 401, N-(3-(2-methylthiazol-4-yl)phenyl)-8,9-dihydro-3H-pyrazolo[3,4-c][2,7]naphthyridine-7(6H)-carboxamide] | 
> 140 | Cc1nc(-c2cccc(NC(=O)N3CCc4c(cnc5[nH]ncc45)C3)c2)no1 [Example 406, N-(3-(5-methyl-1,2,4-oxadiazol-3-yl)phenyl)-8,9-dihydro-3H-pyrazolo[3,4-c][2,7]naphthyridine-7(6H)-carboxamide] | 
175 to 178 | O=C(Nc1cccc(Cc2ccccc2)c1)N1CCc2c(cnc3[nH]ncc23)C1 [Example 408, N-(3-benzylphenyl)-8,9-dihydro-3H-pyrazolo[3,4-c][2,7]naphthyridine-7(6H)-carboxamide] | 
148 to 151 | COc1ccc(-c2ccccc2)cc1NC(=O)N1CCc2c(cnc3[nH]ncc23)C1 [Example 409, N-(4-methoxybiphenyl-3-yl)-8,9-dihydro-3H-pyrazolo[3,4-c][2,7]naphthyridine-7(6H)-carboxamide] | 
198 to 200 | O=C(c1ccccc1)N1CCc2c(cnc3[nH]ncc23)C1 [Example 427, (8,9-dihydro-3H-pyrazolo[3,4-c][2,7]naphthyridin-7(6H)-yl)(phenyl)methanone] | 
> 300 | O=C(NC1CCc2c(cnc3[nH]ncc23)C1)c1ccccc1 (stereo not shown) [Example 430, N-(6,7,8,9-tetrahydro-3H-pyrazolo[3,4-c]isoquinolin-7-yl)benzamide] | 
> 150 | O=C(c1ccccc1)N1CCc2cnc3[nH]ncc3c2-c2ccccc21 [Example 431, 8-(phenylcarbonyl)-3,6,7,8-tetrahydropyrazolo[4′,3′:5,6]pyrido[3,4-d][1]benzazepine] | 
237 to 240 | O=C(O)C(c1ccccc1)N1CCc2c(cnc3[nH]ncc23)C1 (stereo not shown) [Example 433, 2-(8,9-dihydro-3H-pyrazolo[3,4-c][2,7]naphthyridin-7(6H)-yl)-2-phenylacetic acid] | 
164 to 166 | O=C(Cc1ccccc1)N1CCc2c(cnc3[nH]ncc23)C1 [Example 476, 1-(8,9-dihydro-3H-pyrazolo[3,4-c][2,7]naphthyridin-7(6H)-yl)-2-phenylethanone] | 
